This note sets out measurements from patent publication US20210161997A1, “TREATING DISEASES VIA TARGETED MODULATION OF GENE SIGNALING NETWORKS” (Camp4 Therapeutics Corporation, priority 2018, published 2021).

What all share (type): cell-based
The subject of one assay is SERPINC1. Briefly: RNA-seq of SERPINC1 expression in compound-treated primary human hepatocytes. As to conditions: significance FPKM ≥1, log 2(fold change) ≥0.5, q-value ≤0.05.
Another assay relates to UGT1A1. Briefly: RNA-seq of UGT1A1 expression in compound-treated primary human hepatocytes. In outline:
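Cryopreserved primary human hepatocytes from three donors were plated in 24-well format, then treated with compound diluted from 1000× stocks in serum-free maintenance medium for about 16–18 h. Poly(A) RNA-seq log2 fold change was computed against vehicle/pan-experiment controls. Significance required FPKM ≥1, log2FC ≥0.5 and q ≤0.05.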

The next assay has as its system CPOX. Description: RNA-seq of CPOX expression in compound-treated primary human hepatocytes. Conditions: RNA-seq, primary human hepatocytes; significance FPKM ≥0.5, log 2(fold change) ≥0.3, q-value ≤0.05. The method, then: Human hepatocytes were obtained from two donors from Massachusetts General Hospital, namely MGH54 and MGH63, and one donor from Lonza, namely HUM4111B. Cryopreserved hepatocytes were cultured in plating media for 16 hours, transferred to maintenance media for 4 hours. Cultured on serum-free media for 2 hours, then a compound was added. The hepatocytes were maintained on the serum-free media for 16 hours prior to gene expression analysis. Primary human hepatocytes were stored in the vapor phase of a liquid nitrogen freezer (about −130° C.).
Human hepatocytes cultured as described above were plated in 24-well format, adding 375,000 cells per well in a volume of 500 ul plating medium. Four hours before treatment, cells were washed with PBS and the medium was changed to either: fresh maintenance medium (complete) or modified maintenance medium.
Compound stocks were prepared at 1000× final concentration and added in a 2-step dilution to the medium to reduce risk of a compound precipitating out of solution when added to the cells, and to ensure reasonable pipetting volumes. One at a time, each compound was first diluted 10-fold in warm (about 37° C.) modified maintenance medium (initial dilution=ID), mixed by vortexing, and the ID was diluted 100-fold into the cell culture (e.g. 5.1 ul into 1 well of a 24-well plate containing 0.5 mL medium). The plate was mixed by carefully swirling and after all wells were treated and returned to the incubator overnight. If desired, separate plates/wells were treated with vehicle-only controls and/or positive controls. If using multi-well plates, controls were included on each plate. After about 18 hours, cells were harvested for further analysis, e.g., ChIP-seq, RNA-seq, ATAC-seq, etc.
This protocol is a modified version of the following protocols: MagMAX mirVana Total RNA Isolation Kit User Guide (Applied Biosystems #MAN0011131 Rev B.0), NEBNext Poly(A) mRNA Magnetic Isolation Module (E7490), and NEBNext Ultra Directional RNA Library Prep Kit for Illumina (E7420) (New England Biosystems #E74901).
The MagMAX mirVana kit instructions (the section titled “Isolate RNA from cells” on pages 14-17) were used for isolation of total RNA from cells in culture. Two hundred μl of Lysis Binding Mix was used per well of the multiwell plate containing adherent cells (usually a 24-well plate).
For mRNA isolation and library prep, the NEBNext Poly(A) mRNA Magnetic Isolation Module and Directional Prep kit was used. RNA isolated from cells above was quantified, and prepared in […] of each sample in 50 μl of nuclease-free water. This protocol may be run in microfuge tubes or in a 96-well plate.
Standard QC were applied (read integrity, mapping statistics, library complexity, fragment bias) to remove unsatisfactory samples. […] Log 2 fold change and significance values were computed using PME count data (with replicates explicitly modeled versus pan-experiment controls), median ratio normalized, using maximum likelihood estimation rather than maximum a posteriori, and disabling the use of Cook's distance cutoff when determining acceptable adjusted p-values. […] RNA-seq signals were also normalized by read depth and visualized using the UCSC browser.
To identify small molecules that modulate target gene expression, primary human hepatocytes were prepared as a monoculture, and at least one small molecule compound was applied to the cells.
RNA-seq was performed to determine the effects of the compounds on the expression of the target genes in hepatocytes. Fold change was calculated by dividing the level of expression in the cell system that had been perturbed by the level of expression in an unperturbed system. Changes in expression having a p-value ≤0.05 were considered significant.
Significance was defined as an FPKM ≥0.5 a log 2(fold change) ≥0.3, and a q-value of ≤0.05.

In the case of `S=C(NCc1ccc2c(c1)OCO2)N1CCN(c2ncnc3c2oc2ccccc23)CC1` [Amuvatinib], the “SERPINC1 Fold Change (Log2)” value with SERPINC1 is 1.33 Log2. Also, the “UGT1A1 Fold Change (Log2)” value in the assay on UGT1A1 turned out to be 0.61 Log2.
In the case of `O=C1CCC(N2C(=O)c3ccccc3C2=O)C(=O)N1` (stereo not shown) [Thalidomide], the “CPOX Fold change (Log2)” value in the assay with CPOX came out at 0.3 Log2. Further, the “SERPINC1 Fold Change (Log2)” value in the assay with SERPINC1 was found to be 0.88 Log2.
